Patent US5084453A, “1-carboxy-1-vinyloxyimino aminothiazole cephalosporin derivatives” (priority 1988, dated 1992)
Converted amounts (≈) assume the structure as drawn. Like-named read-outs stand apart in the source and are kept apart here.

How the values were obtained:
Test in all cases: in vitro antibacterial activity, agar plate dilution method
Type in all cases: cell-based
E. coli CSH(RE45)* = conditions: Escherichia coli; 10^6 CFU/ml; β-Lactamase-producing strain; 37° C., 16 hours; read-out: MIC
Procedure: (§1) Now, the in vitro antibacterial activities of the compounds of the present invention against various microorganisms, were measured by the following agar plate dilution method.
(§2) One platinum loopfull of each test microorganism incubated overnight in Mueller Hinton broth, was inoculated to Mueller Hinton agar (MH agaer). Such culture media containing various antibiotics in various concentrations were prepared. After incubation at 37° C. for 16 hours, the minimum inhibitory concentrations (MIC μg/ml) were measured.

E. coli NIHJ JC2 = conditions: Escherichia coli, NIHJJC2; 10^6 CFU/ml; Mueller Hinton agar, 37° C., 16 hours; read-out: MIC
Procedure: as §1, §2

E. coli GN5482* = conditions: Escherichia coli, GN5482, 16 h
Procedure: as §1, §2

S. marcescens IAM 1184 = conditions: Serratia marcescens
Procedure: as §1, §2

A. calcoaceticus No. 4 = conditions: Acinetobacter calcoaceticus, NO.4; 10^6 CFU/ml; Mueller Hinton agar, 37° C., 16 hours; read-out: MIC
Procedure: as §1, §2

K. pneumoniae PC1-602 = conditions: Klebsiella pneumoniae
Procedure: as §1, §2

S. aureus 209P NIHJ-JC1 = conditions: Staphylococcus aureus
Procedure: as §1, §2

S. marcescens No. 16-2* = conditions: Serratia marcescens
Procedure: as §1, §2

K. oxytoca GN10650* = conditions: Klebsiella oxytoca, GN10650, 16 h
Procedure: as §1, §2

Ps. aeruginosa AKR17 = conditions: Pseudomonas aeruginosa, AKR17; 10^6 CFU/ml; Mueller Hinton agar, 37° C., 16 hours; read-out: MIC
Procedure: as §1, §2

Ps. cepacia 23 = conditions: Burkholderia cepacia, 23; 10^6 CFU/ml; Mueller Hinton agar, 37° C., 16 hours; read-out: MIC
Procedure: as §1, §2

E. cloacae Nek 39* = conditions: Enterobacter cloacae
Procedure: as §1, §2

K. pneumoniae No. 42* = conditions: Klebsiella pneumoniae, 16 h
Procedure: as §1, §2

Ps. aeruginosa AK 109 = conditions: Pseudomonas aeruginosa
Procedure: as §1, §2

E. coli CSH2(RK1)* = conditions: Escherichia coli, 16 h
Procedure: as §1, §2

M. morganii GN5407* = conditions: Morganella morganii
Procedure: as §1, §2

P. vulgaris HX-19 = conditions: Proteus vulgaris, HX19; 10^6 CFU/ml; Mueller Hinton agar, 37° C., 16 hours; read-out: MIC
Procedure: as §1, §2

E. cloacae 963 = conditions: Enterobacter cloacae, 963, 16 h
Procedure: as §1, §2

P. vulgaris No. 33* = conditions: Proteus vulgaris; 10^6 CFU/ml; β-Lactamase-producing strain; 37° C., 16 hours; read-out: MIC
Procedure: as §1, §2

Ps. aeruginosa IFO3445 = conditions: Pseudomonas aeruginosa
Procedure: as §1, §2

[1] = IAM1184, 10^6 CFU/ml, Mueller Hinton agar, 37° C., 16 hours, read-out: MIC
[2] = PC1602, 10^6 CFU/ml, Mueller Hinton agar, 37° C., 16 hours, read-out: MIC
[3] = 10^6 CFU/ml, β-Lactamase-producing strain, 37° C., 16 hours, read-out: MIC
[4] = AK109, 10^6 CFU/ml, Mueller Hinton agar, 37° C., 16 hours, read-out: MIC
[5] = 10^6 CFU/ml, Mueller Hinton agar, 37° C., 16 hours, read-out: MIC
[6] = IFO3445, 10^6 CFU/ml, Mueller Hinton agar, 37° C., 16 hours, read-out: MIC

SMILES | MIC (E. coli CSH(RE45)*) | MIC (E. coli NIHJ JC2) | MIC (E. coli GN5482*) | MIC (S. marcescens IAM 1184; [1]) | MIC (A. calcoaceticus No. 4) | MIC (K. pneumoniae PC1-602; [2]) | MIC (S. aureus 209P NIHJ-JC1; 16 h) | MIC (S. marcescens No. 16-2*; 16 h) | MIC (K. oxytoca GN10650*) | MIC (Ps. aeruginosa AKR17) | MIC (Ps. cepacia 23) | MIC (E. cloacae Nek 39*; 16 h) | MIC (K. pneumoniae No. 42*) | MIC (E. coli CSH2(RK1)*) | MIC (M. morganii GN5407*; GN5407, 16 h) | MIC (P. vulgaris HX-19) | MIC (E. cloacae 963) | MIC (P. vulgaris No. 33*) | MIC (Ps. aeruginosa IFO3445; IFO3445, 16 h) | MIC (Ps. aeruginosa AK 109; [4]) | other results
C=C(O/N=C(\C(=O)N[C@@H]1C(=O)N2C(C(=O)O)=C(CSc3nnnn3C)CS[C@H]12)c1csc(N)n1)C(=O)O [Example 19, disodium 7β-[2-(2-aminothiazol-4-yl)-2-(1-carboxylato-1-vinyloxyimino)acetamido]-3-(1-methyl-1H-tetrazol-5-yl)thiomethyl-3-cephem-4-carboxylate (syn-isomer)] | 0.1 µg/mL | 0.05 µg/mL | 0.39 µg/mL | < 0.006 µg/mL | 100 µg/mL | 0.0125 µg/mL | 6.25 µg/mL | 1.56 µg/mL | 0.05 µg/mL | > 100 µg/mL | 3.12 µg/mL | 0.78 µg/mL | 0.2 µg/mL | 0.025 µg/mL | 0.025 µg/mL | < 0.006 µg/mL | 0.1 µg/mL | < 0.006 µg/mL | 6.25 µg/mL | – | MIC (Ps. aeruginosa AK 109; AK109, 16 h): 6.25 µg/mL
C=C(O/N=C(\C(=O)N[C@@H]1C(=O)N2C(C(=O)[O-])=C(C[n+]3ccc(C(N)=O)cc3)CS[C@H]12)c1csc(N)n1)C(=O)O [Example 6, 7β-[2-(2-aminothiazol-4-yl)-2-(1-carboxy-1-vinyloxyimino)acetamido]-3-(4-carbamoyl-1-pyridinio)methyl-3-cephem-4-carboxylate (syn-isomer)] | 0.025 µg/mL (≈ 0.0436 µM) | 0.05 µg/mL (≈ 0.0872 µM) | 0.39 µg/mL (≈ 0.68 µM) | < 0.006 µg/mL | 12.5 µg/mL (≈ 21.8 µM) | < 0.006 µg/mL | 1.56 µg/mL (≈ 2.72 µM) | – | 0.2 µg/mL (≈ 0.349 µM) | > 100 µg/mL | 3.12 µg/mL (≈ 5.44 µM) | 1.56 µg/mL (≈ 2.72 µM) | 0.1 µg/mL (≈ 0.174 µM) | 0.025 µg/mL (≈ 0.0436 µM) | 0.025 µg/mL (≈ 0.0436 µM) | 0.0125 µg/mL (≈ 0.0218 µM) | 0.05 µg/mL (≈ 0.0872 µM) | 0.0125 µg/mL (≈ 0.0218 µM) | 6.25 µg/mL (≈ 10.9 µM) | 12.5 µg/mL (≈ 21.8 µM) | MIC (S. marcescens No. 16-2*; [3]): 3.12 µg/mL (≈ 5.44 µM)
C=C(O/N=C(\C(=O)N[C@@H]1C(=O)N2C(C(=O)O)=C(CSc3nnc(C)s3)CS[C@H]12)c1csc(N)n1)C(=O)O [Example 18, disodium 7β-[2-(2-aminothiazol-4-yl)-2-11-carboxylato-1-vinyloxyimino)acetamido]-3-(5-methyl-1,3,4-thiadiazol-2-yl)thiomethyl-3-cephem-4-carboxylate (syn-isomer)] | 0.1 µg/mL | 0.2 µg/mL | 0.39 µg/mL | – | 100 µg/mL | – | – | – | 0.2 µg/mL | > 100 µg/mL | 3.12 µg/mL | 0.78 µg/mL | 0.39 µg/mL | 0.025 µg/mL | – | < 0.006 µg/mL | 0.2 µg/mL | < 0.006 µg/mL | – | 12.5 µg/mL | MIC (S. marcescens IAM 1184; IAM1184, 16 h): 0.025 µg/mL; MIC (K. pneumoniae PC1-602; PC1602, 16 h): 0.025 µg/mL; MIC (S. aureus 209P NIHJ-JC1; [5]): 3.12 µg/mL; MIC (S. marcescens No. 16-2*; [3]): 3.12 µg/mL; MIC (M. morganii GN5407*; GN5407, 10^6 CFU/ml, β-Lactamase-producing strain, 37° C., 16 hours, read-out: MIC): 0.0125 µg/mL; MIC (Ps. aeruginosa IFO3445; [6]): 12.5 µg/mL
C=C(O/N=C(\C(=O)N[C@@H]1C(=O)N2C(C(=O)[O-])=C(C[n+]3ccc(C(=O)O)cc3)CS[C@H]12)c1csc(N)n1)C(=O)O [Example 5, 7β-[2-(2-aminothiazol-4-yl)-2-(1-carboxy-1-vinyloxyimino)acetamido]-3-(4-carboxy-1-pyridinio)methyl-3-cephem-4-carboxylate (syn-isomer)] | 0.05 µg/mL (≈ 0.087 µM) | 0.2 µg/mL (≈ 0.348 µM) | 1.56 µg/mL (≈ 2.72 µM) | – | 50 µg/mL (≈ 87 µM) | – | – | 6.25 µg/mL (≈ 10.9 µM) | 0.39 µg/mL (≈ 0.679 µM) | > 100 µg/mL | 12.5 µg/mL (≈ 21.8 µM) | – | 0.39 µg/mL (≈ 0.679 µM) | 0.2 µg/mL (≈ 0.348 µM) | 0.025 µg/mL (≈ 0.0435 µM) | < 0.006 µg/mL | 0.2 µg/mL (≈ 0.348 µM) | 0.0125 µg/mL (≈ 0.0218 µM) | – | 25 µg/mL (≈ 43.5 µM) | MIC (S. marcescens IAM 1184; IAM1184, 16 h): 0.025 µg/mL (≈ 0.0435 µM); MIC (K. pneumoniae PC1-602; PC1602, 16 h): 0.025 µg/mL (≈ 0.0435 µM); MIC (S. aureus 209P NIHJ-JC1; [5]): 12.5 µg/mL (≈ 21.8 µM); MIC (E. cloacae Nek 39*; [3]): 3.12 µg/mL (≈ 5.43 µM); MIC (Ps. aeruginosa IFO3445; [6]): 25 µg/mL (≈ 43.5 µM)
